From DBAASP come the findings set out here.

In brackets after ≈: the same amount, converted by molar mass.

Some test systems named below: Bacillus subtilis; Acinetobacter baumannii; Escherichia coli; Staphylococcus aureus; Candida albicans.
Common to all, as to assay: ≥ marks a high value that may be exact or a test limit, other limits are often not marked, values filed in µg/mL are converted to µM
For assay [1], the system named is Staphylococcus aureus ATCC 25923.
Assay [2] has as its system Bacillus subtilis ATCC 6633.
The subject of assay [3] is Pseudomonas aeruginosa ATCC 9027.
The subject of assay [4] is Staphylococcus aureus ATCC 6538.
The subject of assay [5] is Escherichia coli ATCC 25922.
Assay [6] has as its system Klebsiella pneumoniae ATCC 700603.
Assay [7] concerns Acinetobacter baumannii ATCC 19606.
The subject of assay [8] is Staphylococcus aureus ATCC 29213.
The subject of assay [9] is Staphylococcus aureus ATCC 43300.
Assay [10] deals with Pseudomonas aeruginosa ATCC 27853.

As to `CC(C)C[C@H](NC(=O)[C@@H]1CSSC[C@H](NC(=O)CNC(=O)[C@H](CCCN=C(N)N)NC(=O)[C@H](Cc2ccccc2)NC(=O)[C@H](C)NC(=O)[C@H](C)N)C(=O)N[C@@H](Cc2c[nH]c3ccccc23)C(=O)N[C@@H]([C@@H](C)O)C(=O)N[C@@H](CCCCN)C(=O)N[C@@H](CC(N)=O)C(=O)N[C@@H](Cc2ccc(O)cc2)C(=O)N[C@@H](CO)C(=O)N2CCC[C@H]2C(=O)N[C@@H](CCCCN)C(=O)N2CCC[C@H]2C(=O)N1)C(=O)O` [AAFRGCWTKNYSPKPCL], the minimum inhibitory concentration (MIC) (as a rule, the lowest concentration that inhibits growth of the organism) came to 51.5 µM (≈ 99.9 µg/mL) in assay [1] and 25.8 µM (≈ 50.1 µg/mL) in assay [2].

Turning to `CC(C)C[C@H](NC(=O)[C@H](CCC(=O)O)NC(=O)[C@H](CC(C)C)NC(=O)[C@H](CO)NC(=O)[C@H](CC(=O)O)NC(=O)[C@H](Cc1ccc(O)cc1)NC(=O)[C@H](CCCN=C(N)N)NC(=O)[C@H](Cc1ccc(O)cc1)NC(=O)CNC(=O)[C@H](Cc1ccccc1)NC(=O)[C@H](CCCCN)NC(=O)[C@H](CCCCN)NC(=O)[C@H](Cc1ccc(O)cc1)NC(=O)[C@H](CC(=O)O)NC(=O)[C@H](Cc1ccccc1)NC(=O)[C@@H](NC(=O)[C@@H](N)CC(=O)O)[C@@H](C)O)C(=O)N[C@@H](CCC(=O)O)C(=O)NCC(=O)N[C@@H](CCCN=C(N)N)C(=O)O` [DTFDYKKFGYRYDSLELEGR], the minimum inhibitory concentration (MIC) with Bacillus subtilis came out at 0.548 µM (≈ 1.37 µg/mL).

With `CC(C)C[C@H](NC(=O)[C@H](CC(C)C)NC(=O)[C@H](CCCCN)NC(=O)[C@H](CCCCN)NC(=O)[C@H](C)NC(=O)[C@H](CC(C)C)NC(=O)[C@H](CCCCN)NC(=O)[C@H](CCCCN)NC(=O)[C@H](C)NC(=O)[C@@H](N)Cc1ccccc1)C(N)=O` [FAKKLAKKLL], the MIC in assay [3] and in assay [4] was > 172 µM in each case.

Turning to `CC(C)C[C@H](NC(=O)[C@H](C)NC(=O)[C@H](Cc1ccccc1)NC(=O)[C@H](CCCCN)NC(=O)[C@H](CCCCN)NC(=O)[C@H](C)NC(=O)[C@H](CC(C)C)NC(=O)[C@H](CCCCN)NC(=O)[C@H](C)NC(=O)[C@H](Cc1ccccc1)NC(=O)[C@H](CC(C)C)NC(=O)[C@H](CCCCN)NC(=O)[C@H](C)NC(=O)[C@@H](N)Cc1ccccc1)C(N)=O` [FAKLFAKLAKKFAL], the values for the MIC in assay [3] and in assay [4] were > 125 µM and 31.3 µM (≈ 50 µg/mL), respectively.

With `CC(C)C[C@H](NC(=O)[C@H](CC(C)C)NC(=O)[C@H](CCCCN)NC(=O)[C@H](CCCCN)NC(=O)[C@H](C)NC(=O)[C@H](CC(C)C)NC(=O)[C@H](CC(C)C)NC(=O)[C@H](CCCCN)NC(=O)[C@H](C)NC(=O)[C@@H](N)Cc1ccccc1)C(N)=O` [FAKLLAKKLL], the MIC in assay [3] was 175 µM (≈ 200 µg/mL); in [4], 87.4 µM (≈ 99.9 µg/mL).

Turning to `CC(C)C[C@H](NC(=O)[C@H](CCCCN)NC(=O)[C@H](C)NC(=O)[C@H](CC(C)C)NC(=O)[C@H](CC(C)C)NC(=O)[C@H](CCCCN)NC(=O)[C@H](C)NC(=O)[C@@H](N)Cc1ccccc1)C(=O)N[C@@H](C)C(=O)N[C@@H](CCCCN)C(=O)N[C@@H](C)C(=O)N[C@@H](CCCCN)C(=O)NCC(N)=O` [FAKLLAKLAKAKG], the MIC in assay [3] and in assay [4] was > 147 µM throughout.

As to `CC(C)C[C@H](NC(=O)[C@H](CCCCN)NC(=O)[C@H](C)NC(=O)[C@H](CCCCN)NC(=O)[C@H](C)NC(=O)[C@H](CC(C)C)NC(=O)[C@H](CCCCN)NC(=O)[C@H](C)NC(=O)[C@H](CC(C)C)NC(=O)[C@H](CC(C)C)NC(=O)[C@H](CCCCN)NC(=O)[C@H](C)NC(=O)[C@@H](N)Cc1ccccc1)C(N)=O` [FAKLLAKLAKAKL], the MIC in assay [3] came to 35.3 µM (≈ 50 µg/mL); in assay [4], 10.6 µM (≈ 15 µg/mL).

For the compound `CC(C)C[C@H](NC(=O)[C@H](CCCCN)NC(=O)[C@H](CC(C)C)NC(=O)[C@H](C)NC(=O)[C@H](CC(C)C)NC(=O)[C@H](CCCCN)NC(=O)[C@H](CCCCN)NC(=O)[C@H](CC(C)C)NC(=O)[C@H](CC(C)C)NC(=O)[C@H](CCCCN)NC(=O)[C@H](Cc1c[nH]c2ccccc12)NC(=O)[C@@H](NC(=O)[C@H](CC(C)C)NC(=O)[C@H](CCCCN)NC(=O)[C@@H](N)Cc1ccccc1)C(C)C)C(=O)O` [FKLVWKLLKKLALKL], the minimal inhibitory concentration (MIC) in the assay with Acinetobacter baumannii is ≥ 64 µM; in assay [3] it was > 64 µM; in [1], 32 µM (≈ 58.9 µg/mL); in assay [5], > 64 µM; in [6], 64 µM (≈ 118 µg/mL).

With `CC(C)C[C@H](NC(=O)[C@@H](N)Cc1ccccc1)C(=O)N1CCC[C@H]1C(=O)N1CCC[C@H]1C(=O)N[C@@H](CO)C(=O)N1CCC[C@H]1C(=O)N[C@@H](Cc1c[nH]c2ccccc12)C(=O)N[C@@H](CCCCN)C(=O)N[C@@H](CCC(=O)O)C(=O)N[C@H](C(=O)N[C@@H](Cc1ccccc1)C(=O)N[C@@H](CCCN=C(N)N)C(=O)N[C@H](C(=O)N[C@@H](CO)C(=O)O)[C@@H](C)O)[C@@H](C)O` [FLPPSPWKETFRTS], the MIC against Escherichia coli was 25.1 µM (≈ 42.5 µg/mL); against Bacillus subtilis it was ≥ 50.2 µM; in the assay on Staphylococcus aureus, 12.6 µM (≈ 21.3 µg/mL); in the assay with Candida albicans it was 12.6 µM (≈ 21.3 µg/mL).

For `CC[C@H](C)[C@H](NC(=O)[C@H](CCCNC(=N)N)NC(=O)[C@@H](NC(=O)[C@@H](NC(=O)[C@@H]1CCCN1C(=O)[C@@H](NC(=O)[C@@H](NC(=O)[C@@H](NC(=O)[C@@H]1CCCN1C(=O)CNC(=O)[C@H](Cc1ccc(O)cc1)NC(=O)[C@H](CCCCN)NC(=O)[C@H](CCCCN)NC(=O)[C@H](Cc1c[nH]c2ccccc12)NC(=O)[C@H](C)NC(=O)[C@H](CCCNC(=N)N)NC(=O)[C@H](CC(C)C)NC(=O)[C@@H](NC(=O)[C@H](CCCCN)NC(=O)[C@H](CCCNC(=N)N)NC(=O)CNC(=O)[C@H](CC(C)C)NC(=O)[C@H](CO)NC(=O)[C@H](CCCNC(=N)N)NC(=O)[C@H](CC(C)C)NC(=O)CNC(=O)CN)[C@@H](C)CC)[C@@H](C)CC)[C@@H](C)CC)C(C)C)[C@@H](C)CC)[C@@H](C)CC)C(N)=O` [GGLRSLGRKILRAWKKYGPIIVPIIRI], the figures for the minimum inhibitory concentration (MIC) (against Acinetobacter baumannii; in assay [7]) were 2.3 µM (≈ 7.07 µg/mL) and 1.63 µM (≈ 5 µg/mL), respectively.

As to `CC[C@H](C)[C@H](NC(=O)CN)C(=O)N[C@@H](Cc1ccccc1)C(=O)NCC(=O)N[C@@H](CCCCN)C(=O)N[C@H](C(=O)N[C@@H](CC(C)C)C(=O)NCC(=O)N[C@H](C(=O)NCC(=O)N[C@@H](CCCCN)C(=O)N[C@@H](CCCCN)C(=O)N[C@H](C(=O)N[C@@H](CC(C)C)C(=O)N[C@H]1CSSC[C@@H](C(=O)O)NC(=O)[C@H](C(C)C)NC(=O)CNC(=O)[C@H](CO)NC(=O)[C@H](CC(C)C)NC(=O)CNC1=O)C(C)C)C(C)C)[C@@H](C)CC` [GIFGKILGVGKKVLCGLSGVC], the MIC against Escherichia coli worked out at 11.5 µM (≈ 23.6 µg/mL); against Bacillus subtilis it was 2.88 µM (≈ 5.89 µg/mL); against Staphylococcus aureus it was 2.88 µM (≈ 5.89 µg/mL); in the assay on Candida albicans it was 5.76 µM (≈ 11.8 µg/mL).

For `CC[C@H](C)[C@H](NC(=O)CN)C(=O)NCC(=O)N[C@@H](C)C(=O)N[C@H](C(=O)N[C@@H](CC(C)C)C(=O)N[C@@H](CCCCN)C(=O)N[C@H](C(=O)N[C@@H](CC(C)C)C(=O)N[C@H](C(=O)N[C@H](C(=O)NCC(=O)N[C@@H](CC(C)C)C(=O)N[C@@H](CS)C(=O)N[C@@H](C)C(=O)N[C@@H](CC(C)C)C(=O)N[C@H](C(=O)N[C@@H](CO)C(=O)N[C@@H](Cc1c[nH]c2ccccc12)C(=O)N[C@H](C(=O)N[C@@H](CCCCN)C(=O)N[C@@H](CCCN=C(N)N)C(=O)N[C@@H](CCCCN)C(=O)N[C@@H](CCCN=C(N)N)C(=O)N[C@@H](CCC(N)=O)C(=O)N[C@@H](CCC(N)=O)C(=O)O)[C@@H](C)CC)[C@@H](C)CC)[C@@H](C)O)[C@@H](C)O)C(C)C)C(C)C` [GIGAVLKVLTTGLCALISWIKRKRQQ], the MIC in [8], in [9], in [10] and in assay [5] was 62.5 µM (≈ 178 µg/mL) each time.

Turning to `CC[C@H](C)[C@H](NC(=O)[C@H](CCCCN)NC(=O)[C@H](CCCCN)NC(=O)[C@@H](NC(=O)[C@H](CC(C)C)NC(=O)[C@H](CC(C)C)NC(=O)[C@H](CCCCN)NC(=O)CN)C(C)C)C(=O)N[C@H](C(=O)N[C@@H](CO)C(=O)N[C@@H](CC(C)C)C(=O)N[C@H](C(=O)N[C@@H](CCCN=C(N)N)C(=O)N[C@@H](CO)C(=O)N[C@@H](C)C(N)=O)C(C)C)C(C)C` [GKLLVKKIVSLVRSA], the MIC was 25 µM (≈ 40.3 µg/mL) with Acinetobacter baumannii; > 25 µM in assay [3]; > 25 µM in [1]; > 25 µM in assay [5]; > 25 µM in assay [6].

Turning to `CC[C@H](C)[C@H](N)C(=O)N[C@@H](CC(N)=O)C(=O)N[C@@H](Cc1c[nH]c2ccccc12)C(=O)N[C@@H](CCCCN)C(=O)N[C@@H](CCCCN)C(=O)N[C@H](C(=O)N[C@@H](C)C(=O)N[C@@H](CO)C(=O)N[C@H](C(=O)NCC(=O)N[C@@H](CCCCN)C(=O)N[C@@H](CCC(=O)O)C(=O)N[C@H](C(N)=O)C(C)C)[C@@H](C)CC)[C@@H](C)CC` [INWKKIASIGKEV], the minimum inhibitory concentration (MIC) against Escherichia coli is 100 µM (≈ 148 µg/mL); in the assay on Bacillus subtilis, ≥ 100 µM.

Turning to `CC(C)C[C@H](NC(=O)[C@H](CC(C)C)NC(=O)[C@H](CCCCN)NC(=O)[C@H](CCCCN)NC(=O)[C@H](C)NC(=O)[C@H](CC(C)C)NC(=O)[C@H](CCCCN)NC(=O)[C@H](C)NC(=O)[C@H](CC(C)C)NC(=O)[C@H](CC(C)C)NC(=O)[C@H](CCCCN)NC(=O)[C@H](C)NC(=O)[C@@H](N)C(C)C)C(N)=O` [VAKLLAKLAKKLL], the MIC in assay [3] and in assay [4] was 3.55 µM (≈ 5 µg/mL) in each case.
